Earlier results as cited in patent US20030167159A1, “Method for determining molecular surface areas and volumes” (California Institute of Technology, priority 2001, published 2003).
Each block holds one compound with its values, some of them ahead of it. Where a SMILES comes first, the peptide text is derived from it.

Key:
Conditions in all cases: as reported in Bursulaya et al.
[1] = molecular target: T1, Cytochrome P-450cam (cyt) (Pseudomonas putida, UniProt P00183)
T1 sequence (P00183 1-415): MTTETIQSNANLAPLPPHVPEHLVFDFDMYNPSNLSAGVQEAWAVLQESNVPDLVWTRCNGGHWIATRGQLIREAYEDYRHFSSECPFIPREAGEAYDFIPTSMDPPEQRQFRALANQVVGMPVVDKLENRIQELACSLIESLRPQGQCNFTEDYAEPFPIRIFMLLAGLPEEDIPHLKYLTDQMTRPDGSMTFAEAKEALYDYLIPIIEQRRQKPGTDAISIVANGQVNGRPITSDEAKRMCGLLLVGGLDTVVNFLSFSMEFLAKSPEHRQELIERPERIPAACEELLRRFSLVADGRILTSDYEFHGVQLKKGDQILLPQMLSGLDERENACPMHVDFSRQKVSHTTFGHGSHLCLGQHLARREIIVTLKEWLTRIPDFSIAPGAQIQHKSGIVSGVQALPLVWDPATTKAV

[2] = molecular target: T2, L-Arabinose binding protein (ara) (Escherichia coli, UniProt P02924)
T2 sequence (P02924 24-329): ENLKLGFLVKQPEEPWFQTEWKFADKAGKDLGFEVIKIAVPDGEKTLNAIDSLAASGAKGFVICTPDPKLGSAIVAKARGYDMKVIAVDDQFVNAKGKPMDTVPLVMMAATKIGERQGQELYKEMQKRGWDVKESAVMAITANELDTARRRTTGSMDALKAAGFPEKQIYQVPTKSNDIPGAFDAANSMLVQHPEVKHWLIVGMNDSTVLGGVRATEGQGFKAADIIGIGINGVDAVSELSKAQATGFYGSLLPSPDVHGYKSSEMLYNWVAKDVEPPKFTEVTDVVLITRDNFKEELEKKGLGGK

Intestinal FABP (fab) = molecular target: T3, Intestinal FABP (fab) (Rattus norvegicus, UniProt P02693)
T3 sequence (P02693 1-132): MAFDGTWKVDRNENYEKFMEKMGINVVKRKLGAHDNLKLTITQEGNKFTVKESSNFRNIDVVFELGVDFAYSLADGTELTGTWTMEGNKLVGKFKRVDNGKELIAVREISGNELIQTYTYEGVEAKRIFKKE

ε-Thrombin (ret) = molecular target: T4, ε-Thrombin (ret) (Bos taurus, UniProt P00735)
T4 construct: ε-Thrombin (ret)

Carboxypeptidase A (car) = molecular target: T5, Carboxypeptidase A (car) (Bos taurus, UniProt P00730)
T5 sequence (P00730 111-419): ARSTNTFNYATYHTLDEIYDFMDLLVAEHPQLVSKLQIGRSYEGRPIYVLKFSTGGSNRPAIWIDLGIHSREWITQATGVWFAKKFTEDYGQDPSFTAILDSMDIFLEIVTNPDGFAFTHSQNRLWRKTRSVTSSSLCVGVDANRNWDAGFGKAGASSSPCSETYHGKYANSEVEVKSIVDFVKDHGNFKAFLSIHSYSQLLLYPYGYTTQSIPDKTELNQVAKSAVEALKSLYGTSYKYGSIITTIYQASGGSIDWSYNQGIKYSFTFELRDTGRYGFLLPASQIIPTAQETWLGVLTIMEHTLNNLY

Trypsin (trp) = molecular target: T6, Trypsin (trp) (Bos taurus, UniProt P00760)
T6 sequence (P00760 24-246): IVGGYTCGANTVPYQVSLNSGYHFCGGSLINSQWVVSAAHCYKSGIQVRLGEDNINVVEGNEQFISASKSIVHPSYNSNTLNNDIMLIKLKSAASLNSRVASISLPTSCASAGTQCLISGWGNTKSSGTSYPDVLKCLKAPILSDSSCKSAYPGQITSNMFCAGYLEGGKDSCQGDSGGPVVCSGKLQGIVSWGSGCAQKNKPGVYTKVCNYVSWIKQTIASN

Compound: CC12CCC(CC1=O)C2(C)C (stereo not drawn) [2cpp]
percentage of ligands in the 10037-compound database that score better than the co-crystal ligand, DOCK ([1]; Dock): 7.3%
percentage of ligands in the 10037-compound database that score better than the co-crystal ligand, FlexX ([1]; FlexX): 12.6%
percentage of ligands in the 10037-compound database that score better than the co-crystal ligand, ICM ([1]; ICM): 11.7%

Compound: OC[C@H]1OC(O)[C@H](O)[C@@H](O)[C@H]1O (stereo partly drawn) [5abp]
percentage of ligands in the 10037-compound database that score better than the co-crystal ligand, DOCK [2]: 0.2%
percentage of ligands in the 10037-compound database that score better than the co-crystal ligand, FlexX [2]: 0.4%
percentage of ligands in the 10037-compound database that score better than the co-crystal ligand, ICM [2]: 0.02%

Compound: CCCCCCCCCCCCCCCC(=O)O [2ifb]
percentage of ligands in the 10037-compound database that score better than the co-crystal ligand, DOCK (Intestinal FABP (fab); Dock): 7.1%
percentage of ligands in the 10037-compound database that score better than the co-crystal ligand, FlexX (Intestinal FABP (fab); FlexX): 99.3%
percentage of ligands in the 10037-compound database that score better than the co-crystal ligand, ICM (Intestinal FABP (fab); ICM): 0.5%

Compound: C[C@H]1O[C@H](O)[C@H](O)[C@@H](O)[C@H]1O [1abf]
percentage of ligands in the 10037-compound database that score better than the co-crystal ligand, DOCK [2]: 1.2%
percentage of ligands in the 10037-compound database that score better than the co-crystal ligand, FlexX [2]: 0.2%
percentage of ligands in the 10037-compound database that score better than the co-crystal ligand, ICM [2]: 0.03%

Compound: O=C(O)C[C@@H](Cc1ccccc1)C(=O)O [1cbx]
percentage of ligands in the 10037-compound database that score better than the co-crystal ligand, DOCK (Carboxypeptidase A (car)): 36.8%
percentage of ligands in the 10037-compound database that score better than the co-crystal ligand, FlexX (Carboxypeptidase A (car)): 2.7%
percentage of ligands in the 10037-compound database that score better than the co-crystal ligand, ICM (Carboxypeptidase A (car)): 0.2%

Compound: N[C@H]1C[C@@H]1c1ccccc1 [1tnl]
percentage of ligands in the 10037-compound database that score better than the co-crystal ligand, DOCK (Trypsin (trp)): 82.9%
percentage of ligands in the 10037-compound database that score better than the co-crystal ligand, FlexX (Trypsin (trp)): 39.1%
percentage of ligands in the 10037-compound database that score better than the co-crystal ligand, ICM (Trypsin (trp)): 51.6%

Compound: NCCc1ccccc1 [1tnj]
percentage of ligands in the 10037-compound database that score better than the co-crystal ligand, DOCK (Trypsin (trp)): 45.1%
percentage of ligands in the 10037-compound database that score better than the co-crystal ligand, FlexX (Trypsin (trp)): 47.9%
percentage of ligands in the 10037-compound database that score better than the co-crystal ligand, ICM (Trypsin (trp)): 1.1%

Compound: O[C@@H]1[C@@H](O)[C@@H](O)CO[C@H]1O [1abe]
percentage of ligands in the 10037-compound database that score better than the co-crystal ligand, DOCK [2]: 0.5%
percentage of ligands in the 10037-compound database that score better than the co-crystal ligand, FlexX [2]: 0.2%
percentage of ligands in the 10037-compound database that score better than the co-crystal ligand, ICM [2]: 0.01%

The remaining lines, values ahead:

percentage of ligands in the 10037-compound database that score better than the co-crystal ligand, DOCK (ε-Thrombin (ret); Dock): 0.9%
percentage of ligands in the 10037-compound database that score better than the co-crystal ligand, FlexX (ε-Thrombin (ret); FlexX): 9%
percentage of ligands in the 10037-compound database that score better than the co-crystal ligand, ICM (ε-Thrombin (ret); ICM): 0.06%
Compound: Cc1ccc(S(=O)(=O)N[C@@H](Cc2ccc(C(=N)N)cc2)C(=O)N2CCCCC2)cc1 [1ett]

percentage of ligands in the 10037-compound database that score better than the co-crystal ligand, DOCK (Carboxypeptidase A (car)): 14.2%
percentage of ligands in the 10037-compound database that score better than the co-crystal ligand, FlexX (Carboxypeptidase A (car)): 1.4%
percentage of ligands in the 10037-compound database that score better than the co-crystal ligand, ICM (Carboxypeptidase A (car)): 0.3%
Compound: NCC(=O)N[C@@H](Cc1ccc(O)cc1)C(=O)O [3cpa] (H-Gly-Tyr-OH)

percentage of ligands in the 10037-compound database that score better than the co-crystal ligand, DOCK (Trypsin (trp)): 37%
percentage of ligands in the 10037-compound database that score better than the co-crystal ligand, FlexX (Trypsin (trp)): 0.6%
percentage of ligands in the 10037-compound database that score better than the co-crystal ligand, ICM (Trypsin (trp)): 0.3%
Compound: Cc1ccc(S(=O)(=O)N[C@@H](Cc2cccc(C(=N)N)c2)C(=O)N2CCCCC2)cc1 [1pph]

percentage of ligands in the 10037-compound database that score better than the co-crystal ligand, DOCK (Trypsin (trp)): 28.7%
percentage of ligands in the 10037-compound database that score better than the co-crystal ligand, FlexX (Trypsin (trp)): 30.8%
percentage of ligands in the 10037-compound database that score better than the co-crystal ligand, ICM (Trypsin (trp)): 0.3%
Compound: NCC1CCCCC1 [1tng]

percentage of ligands in the 10037-compound database that score better than the co-crystal ligand, DOCK (Trypsin (trp)): 58.1%
percentage of ligands in the 10037-compound database that score better than the co-crystal ligand, FlexX (Trypsin (trp)): 37.1%
percentage of ligands in the 10037-compound database that score better than the co-crystal ligand, ICM (Trypsin (trp)): 14.6%
Compound: NCCCc1ccccc1 [1tnk]

percentage of ligands in the 10037-compound database that score better than the co-crystal ligand, DOCK (Trypsin (trp)): 20.3%
percentage of ligands in the 10037-compound database that score better than the co-crystal ligand, FlexX (Trypsin (trp)): 14%
percentage of ligands in the 10037-compound database that score better than the co-crystal ligand, ICM (Trypsin (trp)): 0.1%
Compound: N=C(N)c1ccccc1 [3ptb]
